# In patent US20220249564A1, “PDL1 POSITIVE NK CELL CANCER TREATMENT” (City of Hope, priority 2019, published 2022):
# What was measured:
# [1] = tested on: NK cells incubated with K562 cells; test: p38 inhibitors on AZ-induced PD-L1, CD107α and IFN-γ expression of NK cells; assay type: cell-based, human; details: presence of K562 tumor cells, 1 μM inhibitor; for AZ-induced PD-L1 expression: FIG. 6H; for AZ-induced CD107α expression of NK cells / AZ-induced IFN-γ expression of NK cells: FIG. 6J
# Description: (§1) FIGS. 6A-6J present data showing signaling pathways activating PD-L1^+ NK cells. […] “D1+” represents PD-L1^+ NK cells from donor 1, while “D1−” represents PD-L1^− NK cells from donor 1, each purified by FACS sorting. Similar definitions are applied to “D2+”, “D2−”, “D3+”, and “D3−”. Expression of Cd274 (PD-L1), Cd226, Tbx21, Eomes, Smad3 and Aka are highlighted by black arrows. […] The percentages of PD-L1+ NK cells were measured by flow cytometry. […] Data were generated from five (5) independent donors, and the experiment was repeated three times. […] Relative promoter activity was measured by luciferase assay after 48 hours. […] The experiments were repeated three times. […] The experiments were repeated three times.
# Two paired groups were compared by paired t-test. One-way ANOVA with repeated measures or linear mixed model was used to compare three (3) or more donor-matched groups. P values were adjusted by the Holm-Sidak method.
# (§2) Cells were suspended in 100 μl PBS with 2% FBS and incubated with the indicated mAb (Table 2) at room temperature for 20 mins. After washing with 2% FBS for one time and PBS for another time, cells were fixed in 1% paraformaldehyde buffer for immediate analysis by flow cytometry using a LSRII flow cytometer (BD Biosciences). Cells used for sorting were re-suspended in RPMI 1640 containing 10% FBS. For intracellular flow cytometry, cells were permeabilized and fixed using the Foxp3/Transcription Factor Fixation/Permeabilization kit (eBioscience, Cat #00-5523-00). Data were analyzed by FlowJo software.
# [2] = tested on: PD-L1 expression on NK cells; test: PD-L1 expression on NK cells incubated with K562 cells in the presence of pathway inhibitors; assay type: cell-based, human; details: inhibitor 1 μM or 10 μM, FIGS. 6B, 6C
# Description: as §1
# To investigate mechanisms by which PD-L1 is induced in NK cells by myeloid leukemia cells, an RNA microarray was performed to profile gene expression in PD-L1^+ NK cells vs PD-L1^− NK cells, both of which were FACS-purified from bulk NK cells after being co-cultured with K562 cells. […] They were subsequently incubated with K562 myeloid leukemia cells and then PD-L1 expression on NK cells was measured. […] A PD-L1 promoter was cloned 2.1 kb upstream of the transcription start site, co-transfected with genes for specific transcription factors in 293T cells, and the activity of the PD-L1 promoter was measured by luciferase assay. […]
# [3] = tested on: PD-L1 expression on expanded human primary NK cells; test: PD-L1 expression on expanded human primary NK cells with AZ; assay type: cell-based; details: expanded 7 days with K562 feeder cells, with or without 5 ng/ml IL-12 and IL-18 for 20 h; FIG. 15
# Description: Expanded human primary NK cells for 7 days with indicated medium (R10: RPMI1640+10% FBS; MACS: MACS medium+5% human serum; SCGM: SCGM medium+5% human serum) were treated with or without 5 ng/ml IL-12 and IL-18 for 20 h in the presence of AZ or not. The expression of PD-L1 were examined by flow cytometry. P values of multiple comparison were analyzed using one-way ANOVA. Multiple comparison test was adjusted by Holm-Sidak method. ****, P<0.0001.
# Expanded human primary NK cells for 7 days with indicated medium (R10: RPMI1640+10% FBS; MACS: MACS medium+5% human serum; SCGM: SCGM medium+5% human serum) were treated with or without 5 ng/ml IL-12 and IL-18 for 20 h in the presence of AZ or not. The expression of PD-L1 were examined by flow cytometry (FIG. 15). PBMC from lung cancer patients were isolated and examined for PD-L1 expression by flow cytometry (FIG. 16).
# PD-L1+ NK cells = test: NK cell CD107α and IFN-γ expression after AZ treatment (flow cytometry); assay type: cell-based, human
# Description: (§3) FIGS. 3A-3D present data showing that anti-PD-L1 monoclonal antibody atezolizumab (AZ) activates PD-L1 signaling in NK cells and enhances NK cell function. […] The P values were corrected for multiple comparisons by Holm's method. […] The experiment was repeated three times with three different donors. […] NK cells were sorted and the relative levels of PD-L1 mRNA expression were measured by qRT-PCR. The experiment was repeated three times. […] Two paired groups were compared by paired t-test. One-way ANOVA with repeated measures or linear mixed model was used to compare three (3) or more donor-matched groups. P values were adjusted by the Holm-Sidak method.
# Peripheral blood samples from healthy donors were obtained from The American Red Cross. Human PBMCs were isolated by Percoll density gradient centrifugation. Primary human NK cells were enriched from the peripheral blood of healthy donors using an NK Cell Enrichment Kit (Miltenyi Biotec, Cat #0.130-115-818). Enriched NK cells with purity about 90% were either sorted by fluorescence-activated cell sorting (FACS) to the purity around 96% and then used or used immediately for in vitro cell culture experiments. […] All cell lines were maintained in RPMI 1640 medium supplemented with 10% FBS and 100 U/ml penicillin/streptomycin. For co-culture stimulation experiments, PBMCs, enriched NK cells, or FACS-sorted NK cells were co-incubated with various cell lines including K562, MOLM-13, AML3, RPMI 8226 or MV-4-11 at an effector/target (E/T) ratio of 10:1. […] For transwell assay experiments, 5×10^5 enriched human primary NK cells were seeded in the upper chamber of a transwell plate. The lower chamber of the transwell plate was seeded with 5×10^4 K562 myeloid leukemia cells. The transwell plate with cells was incubated at 37° C. for 20 hr.
# Cells were suspended in 100 μl PBS with 2% FBS and incubated with the indicated mAb (Table 2) at room temperature for 20 mins. […] Data were analyzed by FlowJo software.
# [4] = tested on: p38, p-ERK, p-AKT, p-mTOR in NK cells; test: Downstream kinase phosphorylation in NK cells after AZ (intracellular flow cytometry, immunoblot); assay type: cell-based, human; details: NK cells with K562 cells, AZ treatment
# Description: as §1
# FIG. 13 presents data showing induction of p38-NF-κB signaling in primary human NK cells by the anti-PD-L1 antibody AZ. […] The histograms provided in the upper panel represent quantification of various phosphorylated kinases expressed in NK cells, followed by a graphical summary of the data (n=3) below each histogram. One-way ANOVA with repeated measures or linear mixed model was used to compare three (3) or more donor-matched groups and P values were adjusted by the Holm-Sidak method. ****, P<0.0001; NS=not significant.
# as §2
# Cells were pelleted and lysed in protein extraction reagent (Thermo Fisher, Cat. #78510) supplied with proteinase inhibitors. Standard procedures were used for immunoblotting. Primary antibodies used were PD-L1 (Cell Signaling Technology, Cat. #13684), GAPDH (Cell Signaling Technology, Cat. #2118), β-actin (Cell Signaling Technology, Cat. #4967), p-p38 (Cell Signaling Technology, Cat. #9211) and p-AKT (Cell Signaling Technology, Cat. #9271). Proteins were detected using goat anti-rabbit HRP-conjugated secondary antibodies (Cell Signaling Technology, Cat. #7074).
# [5] = tested on: PD-L1-KO K562 myeloid leukemia cells; test: NSG mouse model with human primary NK cells and PD-L1-KO K562 cells; assay type: in vivo, NSG mice
# Excerpt: After 6 days, mice were sacrificed and NK cells were isolated and assessed for PD-L1 expression by flow cytometry. […] PBS instead of IgG1 was used as placebo because AZ lacks antibody-dependent cellular cytotoxicity activity. After 6 days (three treatments), mice were sacrificed and human NK cells were examined for their expression of granzyme B, CD107α, and IFN-γ, while the number of PD-L1-knockout K562 myeloid leukemia cells (as shown in FIG. 5C) was enumerated by flow cytometry. […] Two paired groups were compared by paired t-test. One-way ANOVA with repeated measures or linear mixed model was used to compare three (3) or more donor-matched groups. P values were adjusted by the Holm-Sidak method. Kaplan-Meier method was used to estimate survival functions and log-rank test was applied to group comparisons.
# 8-week old NSG mice were intravenously (i.v.) injected with PD-L1 knockout K562 myeloid leukemia cells at a concentration of 2 million cells per mouse. […] Mice in the atezolizumab (AZ)-treated or control group were simultaneously i.p-injected with 200 μg AZ in 200 μL PBS or 200 μL PBS per mouse. Cytokines and AZ were injected every other day for a total of […]. The numbers of NK cells and tumor cells were examined at day 6 post injection.
# [6] = tested on: PD-L1 expression on NK cells; test: PD-L1 expression of K562-pretreated NK cells after AZ (qRT-PCR, flow cytometry); assay type: cell-based, human; details: time dependent
# Description: as §3
# as §2, with “software. […]” for “software.”
# ADCC = details: Fc domain modification; cited from earlier work
# [7] = tested on: PD-L1 expression on NK cells; test: Induction of PD-L1 expression on NK cells by NK cell-activating cytokines; assay type: cell-based, human; details: alone or in combination with other cytokines, 10 ng/mL, 24 hour; FIG. 11F
# Description: The cytotoxicity levels of total NK cells incubated with medium alone were served as control. The cytokine-treated bulk NK cells were permeabilized and gated PD-L1+ and PD-L1^− cells to measure the MFI of IFN-γ by flow cytometry assay as shown in FIG. 11D. […] Summary graph (n=3) is shown at the bottom. […] Summary graph (n=3) is shown at the bottom. Two-sample t test was used for 2-group comparisons. One-way ANOVA was used to compare three (3) or more groups and P values were adjusted by the Holm-Sidak method. **, P<0.01; ***, P<0.001; ****, P<0.0001; NS=not significant.
# Peripheral blood samples from healthy donors were obtained from The American Red Cross. Human PBMCs were isolated by Percoll density gradient centrifugation. Primary human NK cells were enriched from the peripheral blood of healthy donors using an NK Cell Enrichment Kit (Miltenyi Biotec, Cat #0.130-115-818). Enriched NK cells with purity about 90% were either sorted by fluorescence-activated cell sorting (FACS) to the purity around 96% and then used or used immediately for in vitro cell culture experiments. NK cells were cultured in RPMI 1640 supplemented with 20% FBS, 100 U/ml penicillin/streptomycin, and 10 ng/ml IL-2. […]
# Cells were suspended in 100 μl PBS with 2% FBS and incubated with the indicated mAb (Table 2) at room temperature for 20 mins. […] Data were analyzed by FlowJo software. […]
# [8] = NK cells stimulated with PD-L1 knock-out K562 cells 20 hours, then 20 μg/mL AZ 4 hours, FIG. 3A
# [9] = vs placebo (PBS), i.p. every other day, after 6 days, FIG. 5B
molecule,measurement,setting,value
Oc1ccc(-c2nc(-c3ccncc3)c(-c3ccc(F)cc3)[nH]2)cc1 [SB202190],AZ-induced PD-L1 expression,[1],reduce
same,AZ-induced CD107α expression of NK cells,[1],inhibited
same,AZ-induced IFN-γ expression of NK cells,[1],inhibited
C[S+]([O-])c1ccc(-c2nc(-c3ccncc3)c(-c3ccc(F)cc3)[nH]2)cc1 (stereo not drawn) [SB203580],AZ-induced PD-L1 expression,[1],reduce
same,AZ-induced CD107α expression of NK cells,[1],inhibited
same,AZ-induced IFN-γ expression of NK cells,[1],inhibited
Cc1ccc(S(=O)(=O)N[C@@H](Cc2ccccc2)C(=O)CCl)cc1 [TPCK],PD-L1 expression on NK cells,[2],regulation role of p65 in PD-L1 expression was confirmed
Cn1ncc(Cl)c1-c1cc(C(=O)N[C@H](CN)Cc2cccc(F)c2)sc1Cl [afuresertib],PD-L1 expression on NK cells,[2],significantly reduced
atezolizumab [AZ],expression of PD-L1 on expanded human primary NK cells,[3],further enhanced
same,expression of CD107a in PD-L1+ NK cells,PD-L1+ NK cells; [8],increased
same,expression of IFN-γ in PD-L1+ NK cells,PD-L1+ NK cells; [8],increased
same,IFN-γ production of PD-L1-transduced NK cells,"PD-L1+ NK cells; lentiviral PD-L1-transduced NK cells treated with AZ, FIG. 3B",even more dramatically increased
same,level of p38,"[4]; IL-2 10 ng/mL, FIG. 13, 6G",increased
same,level of p-ERK,[4]; FIG. 13,not increased
same,level of p-mTOR,[4]; FIG. 13,not increased
same,level of p-AKT,"[4]; FIG. 13, 6G",not increased
same,NK cell expression of CD107α,[5]; [9],significant increase
same,NK cell expression of IFN-γ,[5]; [9],significant increase
same,NK cell expression of granzyme B,[5]; [9],significant increase
same,tumor burden (number of PD-L1-KO K562 cells),"[5]; vs placebo-treated mice, upon sacrifice, FIG. 5C",significantly lower
same,"PD-L1 expression of NK cells, mRNA level","[6]; NK cells pretreated with K562, 20 μg/mL AZ, FIG. 3C",further elevated
same,"PD-L1 expression of NK cells, protein level","[6]; NK cells pretreated with K562, AZ, FIG. 3D",further elevated
same,ADCC effect,ADCC,absence
recombinant IFN-γ: recombinant interferon gamma,PD-L1 expression on NK cells,[7],could not induce
